US6222035A, “[1,2,4] triazolo [1,5-C] pyrimidine derivatives” (Kyowa Hakko Kogyo Co., Ltd., priority 1997, dated 2001)
Structures can show the parent of a compound that is named as a salt.

What was measured:
adenosine A2A receptor = molecular target: T1, adenosine A2A receptor (Rattus norvegicus, UniProt P30543); assay: Adenosine receptor binding activity (adenosine A2A receptor binding test), 3H-CGS 21680 binding; settings: 2 h, read-out: A2A receptor inhibition ratio (%); for inhibition at 0.1 µM: 10^-7 M
T1 construct: from tissue; host or cells: rat corpus striatum, washed membrane suspension
Description: Adenosine receptor binding activity (adenosine A2A receptor binding test) This test was carried out by slightly modifying the method of Bruns et al. [Molecular Pharmacology, 29: 331 (1986)].
Corpus striatum of a rat was suspended in an ice-cooled 50 mM tris(hydroxymethyl)aminomethane hydrochloride (hereinafter referred to as "Tris-HCl") buffer (pH 7.7) using Polytron Homogenizer (manufactured by Kinematica Co.). The suspension was centrifuged (50,000×g, 10 minutes), and the obtained precipitate was re-suspended in the same amount of 50 mM Tris-HCl buffer. The suspension was centrifuged under the same conditions, and the final precipitate was suspended in 50 mM Tris-HCl [containing 10 mM magnesium chloride and 0.02 unit/mg tissue of adenosine deaminase (manufactured by Sigma Co.)] to give a tissue concentration of 5 mg (wet weight)/ml.
To 1 ml of the tissue suspension thus prepared were added 50 μl of tritium-labeled CGS 21680 {^3 H-2-[p-(2-carboxyethyl)phenethylamino]-5'-N-ethylcarboxamido)adenosine: 40 Ci/mmol; manufactured by New England Nuclear Co.[The Journal of Pharmacology and Experimental Therapeutics, 251: 888 (1989)]} (final concentration:4.0 nM) and 50 μl of a test compound. The resulting mixture was allowed to stand for 120 minutes at 25° C., and then rapidly filtered by suction through a glass fiber filter (GF/C, manufactured by Whatman Co.) The filter was immediately washed three times with […] of an ice-cooled 50 mM Tris-HCl buffer, and transferred to a vial, a scintillator (EX-H , manufactured by Wako Pure Chemical Industries, Ltd.) was added thereto, and the radioactivity on the filter was determined with a liquid scintillation counter (manufactured by Packard Instrument Co.) […]
The inhibition ratio of the test compound against the A2A receptor binding (^3 H-CGS 21680 binding) was calculated by the following equation:
Inhibition ratio (%)={1-(Amount of the binding in the presence of the test compound-Amount of the nonspecific binding)/(Amount of the total binding-Amount of the nonspecific binding)}×100
(Note) Amount of the total binding means the amount of radioactivity of ^3 H-CGS 21680 bound in the absence of the test compound. Amount of the nonspecific binding means the amount of radioactivity of ^3 H-CGS 21680 bound in the presence of 100 μM cyclopentyladenosine (CPA, manufactured by Sigma Co.) Amount of the binding in the presence of the test compound means the amount of radioactivity of ^3 H-CGS 21680 bound in the presence of the test compound at various levels of concentrations.

[1] = system: CGS 21680-induced catalepsy in mice; assay: Activity on CGS 21680-induced Catalepsy; format: in vivo, mouse (male ddY); settings: 10 mg/kg oral; for Total score (catalepsy): 10 animals, maximum 50 points, control 48; for Number of Animals showing remission: catalepsy score 4 points or less in 10 cases; for inhibition in vivo at 10 mg/kg: Mus musculus, CGS 21680-induced catalepsy, read-out: Remission ratio (%)
Description: Activity on CGS 21680-induced Catalepsy
Parkinson's disease is motor deficit based on the degeneration and cell death of the nigrostriatal dopaminergic neuron. […] [Journal of Neuroscience, 16: 605 (1996)]. Accordingly, it is considered that adenosine A2A receptor agonists positively regulate the output of the striopallidal GABAergic neurons and, as a result, catalepsy is induced by the administration of CGS 21680.
This test was carried out using 10 animals per group of male ddY mice of 5 week age (22 to 25 g in body weight, Japan SLC). CGS 21680 (manufactured by RBI) was dissolved in a physiological saline (manufactured by Otsuka Pharmaceutical), and 10 μg/20 μl of the solution was injected into mouse intracerebro-ventricle. Test compounds were used by suspending them in distilled water containing 0.3% of polyoxyethylene(20)sorbitan monooleate (hereinafter referred to as "Tween 80") (manufactured by Otsuka Pharmaceutical). […] One hour after the administration of the test compound, only forelimbs or only hindlimbs of each animal were laid on a vertically arranged stand made of acryl, having a size of 4.5 cm in height and 1.0 cm in width, to measure catalepsy symptoms. All of the compounds were administered orally in a dose of 10 mg/kg.
The effect was judged by total catalepsy scores of 10 animals in one group (the maximum is 50 points). When the total score was 40 points or less, the activity of drugs was judged positive. The number of animals showing remission of catalepsy was expressed by the number of cases in which the catalepsy score was 4 points or less in 10 cases. The catalepsy remission ratio was expressed as the percentage of the total score in the test compound-administered group to the total score in the control group.

T1 sequence (P30543 whole entry): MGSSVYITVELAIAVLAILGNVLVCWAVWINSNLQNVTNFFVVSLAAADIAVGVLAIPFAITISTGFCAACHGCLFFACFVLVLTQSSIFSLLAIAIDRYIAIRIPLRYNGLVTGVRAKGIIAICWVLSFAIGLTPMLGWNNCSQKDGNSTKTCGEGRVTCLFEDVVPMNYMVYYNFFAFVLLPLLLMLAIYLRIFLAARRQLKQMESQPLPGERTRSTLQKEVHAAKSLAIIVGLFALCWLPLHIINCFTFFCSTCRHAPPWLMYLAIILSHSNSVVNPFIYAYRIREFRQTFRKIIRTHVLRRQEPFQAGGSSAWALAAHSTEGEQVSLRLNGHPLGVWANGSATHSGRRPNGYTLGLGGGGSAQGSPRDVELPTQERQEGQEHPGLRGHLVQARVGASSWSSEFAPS

SMILES | inhibition at 0.1 µM (adenosine A2A receptor) | inhibition at 0.01 µM (adenosine A2A receptor; 10^-8 M) | Total score (catalepsy) [1] | Number of Animals showing remission [1] | inhibition in vivo at 10 mg/kg [1]
CC(O)CN1CCN(c2cc3nc(-c4ccco4)nn3c(N)n2)CC1 (racemic) [Compound 105, (±)-5-Amino-2-(2-furyl)-7-(4-(2-hydroxypropyl)piperazinyl)[1,2,4]triazolo[1,5-c]pyrimidine] | 41% | – | 4 | 10 | 92%
Nc1nc(Oc2ccc(Cl)cc2)cc2nc(-c3ccco3)nn12 [Compound 35, 5-Amino-7-(4-chlorophenoxy)-2-(2-furyl)[1,2,4]triazolo[1,5-c]pyrimidine] | 82% | 43% | 15 | 8 | 66%
COc1ccc(OC)c(CN2CCN(c3cc4nc(-c5ccco5)nn4c(N)n3)CC2)c1 [Compound 75, 5-Amino-7-((2,5-dimethoxybenzyl)piperazinyl)-2-(2-furyl)[1,2,4]triazolo[1,5-c]pyrimidine] | 84% | – | 10 | 9 | 76%
COc1cc(CN2CCN(c3cc4nc(-c5ccco5)nn4c(N)n3)CC2)cc(OC)c1 [Compound 76, 5-Amino-7-(4-(3,5-dimethoxybenzyl)piperazinyl)-2-(2-furyl)[1,2,4]triazolo[1,5-c]pyrimidine] | 73% | – | 11 | 10 | 76%
COc1cc(CN2CCN(c3cc4nc(-c5ccco5)nn4c(N)n3)CC2)cc(OC)c1OC [Compound 77, 5-Amino-2-(2-furyl)-7-(4-(3,4,5-trimethoxybenzyl)piperazinyl)[1,2,4]triazolo[1,5-c]pyrimidine] | 77% | – | 21 | 9 | 54%
Nc1nc(N2CCN(Cc3c(Cl)cccc3Cl)CC2)cc2nc(-c3ccco3)nn12 [Compound 80, 5-Amino-7-(4-(2,6-dichlorobenzyl)piperazinyl)-2-(2-furyl)[1,2,4]triazolo[1,5-c]pyrimidine hydrochloride] | 93% | – | 3 | 10 | 92%
Nc1nc(N2CCN(Cc3ccccn3)CC2)cc2nc(-c3ccco3)nn12 [Compound 84, 5-Amino-2-(2-furyl)-7-(4-(2-picolyl)piperazinyl)[1,2,4]triazolo[1,5-c]pyrimidine] | 63% | – | 9 | 9 | 78%
Nc1nc(N2CCN(c3ccccn3)CC2)cc2nc(-c3ccco3)nn12 [Compound 93, 5-Amino-2-(2-furyl)-7-(4-(2-pyridyl)piperazinyl)[1,2,4]triazolo[1,5-c]pyrimidine] | 36% | – | 10 | 8 | 66%
Nc1nc(N2CCN(c3nc4ccccc4o3)CC2)cc2nc(-c3ccco3)nn12 [Compound 94, 5-Amino-7-(4-(2-benzoxazolyl)piperazinyl)-2-(2-furyl)[1,2,4]triazolo[1,5-c]pyrimidine] | 37% | – | – | – | –
CCOCCN1CCN(c2cc3nc(-c4ccco4)nn3c(N)n2)CC1 [Compound 96, 5-Amino-7-(4-(2-ethoxyethyl)piperazinyl)-2-(2-furyl)[1,2,4]triazolo[1,5-c]pyrimidine] | 58% | – | 7 | 9 | 86%
Nc1nc(SCc2ccccn2)cc2nc(-c3ccco3)nn12 [Compound 182, 5-Amino-2-(2-furyl)-7-(2-picolylthio)[1,2,4]triazolo[1,5-c]pyrimidine] | 82% | – | – | – | –
Cc1ccc(CSc2cc3nc(-c4ccco4)nn3c(N)n2)cc1 [Compound 186, 5-Amino-2-(2-furyl)-7-(4-methylbenzylthio)[1,2,4]triazolo[1,5-c]pyrimidine] | 52% | – | – | – | –
Nc1nc(SCc2ccccc2[N+](=O)[O-])cc2nc(-c3ccco3)nn12 [Compound 194, 5-Amino-2-(2-furyl)-7-(2-nitrobenzylthio)[1,2,4]triazolo[1,5-c]pyrimidine] | 75% | – | – | – | –

Now from value to compound, other results behind:

inhibition at 0.1 µM (adenosine A2A receptor) | inhibition at 0.01 µM (adenosine A2A receptor; 10^-8 M) | SMILES | Total score (catalepsy) [1] | Number of Animals showing remission [1] | inhibition in vivo at 10 mg/kg [1]
85% | – | Nc1nc(N2CCN(Cc3ccccc3F)CC2)cc2nc(-c3ccco3)nn12 [Compound 78, 5-Amino-7-(4-(2-fluorobenzyl)piperazinyl)-2-(2-furyl)[1,2,4]triazolo[1,5-c]pyrimidine] | 6 | 10 | 86%
83% | – | COc1ccc(CCCN2CCN(c3cc4nc(-c5ccco5)nn4c(N)n3)CC2)cc1OC [Compound 86, 5-Amino-7-(4-(3-(3,4-dimethoxyphenyl)propyl)piperazinyl)-2-(2-furyl)[1,2,4]triazolo[1,5-c]pyrimidine] | 13 | 9 | 72%
77% | – | Nc1nc(N2CCN(CCCc3cccnc3)CC2)cc2nc(-c3ccco3)nn12 [Compound 87, 5-Amino-2-(2-furyl)-7-(4-(3-(3-pyridyl)propyl)piperazinyl)[1,2,4]triazolo[1,5-c]pyrimidine hydrochloride] | 14 | 9 | 68%
82% | – | Nc1nc(N2CCN(CCOc3ccccc3)CC2)cc2nc(-c3ccco3)nn12 [Compound 90, 5-Amino-2-(2-furyl)-7-(4-(2-phenoxyethyl)piperazinyl)[1,2,4]triazolo[1,5-c]pyrimidine hydrochloride] | 12 | 9 | 80%
72% | – | Nc1nc(N2CCN(CCCOCc3ccccc3)CC2)cc2nc(-c3ccco3)nn12 [Compound 102, 5-Amino-7-(4-(3-benzyloxypropyl)piperazinyl)-2-(2-furyl)[1,2,4]triazolo[1,5-c]pyrimidine hydrochloride] | – | – | –
38% | – | COCCN1[C@H](C)CN(c2cc3nc(-c4ccco4)nn3c(N)n2)C[C@@H]1C [Compound 117, 5-Amino-7-(cis-3,5-dimethyl-4-(2-methoxyethyl)piperazinyl)-2-(2-furyl)[1,2,4]triazolo[1,5-c]pyrimidine] | – | – | –
51% | – | C[C@@H]1CN(c2cc3nc(-c4ccco4)nn3c(N)n2)C[C@H](C)N1CCCc1ccccc1 [Compound 119, 5-Amino-7-(cis-3,5-dimethyl-4-(3-phenylpropyl)piperazinyl)-2-(2-furyl)[1,2,4]triazolo[1,5-c]pyrimidine] | – | – | –
82% | – | Nc1nc(SCc2ccccc2)cc2nc(-c3ccco3)nn12 [Compound 183, 5-Amino-7-benzylthio-2-(2-furyl)[1,2,4]triazolo[1,5-c]pyrimidine] | – | – | –
